ChEMBL document CHEMBL3393004, “Insights on the role of boron containing moieties in the design of new potent and efficient agonists targeting the β2 adrenoceptor” (Bioorg Med Chem Lett, 2015)

Experiments:
[1] = molecular target: Beta-2 adrenergic receptor (Cavia porcellus) (UniProt Q8K4Z4); test: Agonist activity at adrenergic beta2 receptor in Hartley guinea pig tracheal ring assessed as bronchorelaxation activity against histamine-induced contraction relative to isoproterenol; conditions: Trachea
[2] = molecular target: T1, Beta-2 adrenergic receptor (Cavia porcellus, UniProt Q8K4Z4); test: Agonist activity at adrenergic beta2 receptor in Hartley guinea pig tracheal ring assessed as bronchorelaxation activity against histamine-induced contraction; design: species or system Trachea
[3] = molecular target: T1, Beta-2 adrenergic receptor; test: Agonist activity at adrenergic beta2 receptor in Hartley guinea pig tracheal ring at basal tone assessed as bronchorelaxation activity

T1 sequence (Q8K4Z4 whole entry): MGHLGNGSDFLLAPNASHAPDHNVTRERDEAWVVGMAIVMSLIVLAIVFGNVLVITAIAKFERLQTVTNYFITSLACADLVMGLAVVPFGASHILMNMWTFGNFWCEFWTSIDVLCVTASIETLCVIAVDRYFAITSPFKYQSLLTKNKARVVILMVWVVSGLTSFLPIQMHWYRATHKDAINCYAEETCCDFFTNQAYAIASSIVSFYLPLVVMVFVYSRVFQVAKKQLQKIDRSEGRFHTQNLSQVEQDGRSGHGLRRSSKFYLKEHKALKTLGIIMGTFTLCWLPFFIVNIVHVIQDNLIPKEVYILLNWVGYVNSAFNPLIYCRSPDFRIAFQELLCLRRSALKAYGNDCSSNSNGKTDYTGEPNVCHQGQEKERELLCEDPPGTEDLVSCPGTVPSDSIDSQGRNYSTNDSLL
Sequence of Beta-2 adrenergic receptor (Cavia porcellus) (Q8K4Z4 whole entry, looked up): as the sequence (Q8K4Z4 whole entry) above

Efficacy [1]	EC50 [2]	Kd [2]	Kd [3]	Compound
68%	–	–	–	CC(C)(C)NCC(O)c1ccc(O)c(CO)c1 (configuration not stated)
94%	≤ 280 nM	28.2 nM	5.13 nM	CC(C)C[B-]1(O)OCc2cc([C@@H](O)C[NH2+]C(C)(C)C)ccc2O1 (some centres not stated)
–	–	17.8 nM	25.1 nM	CC(C)NCC(O)c1ccc(O)c(O)c1 (configuration not stated) [ISOPROTERENOL]
